In patent publication US11434241B2, “Pyrimidine derivatives for prevention and treatment of bacterial infections” (UNIVERSITE DE LIEGE, priority 2018, dated 2022):
In brackets after ≈: the same amount, converted by molar mass. Like-named read-outs stand apart in the source and are kept apart here.

Legend:
[1] = tested on: S. aureus Xen29 (ATCC 12600); assay: MIC determination on bioluminescent S. aureus Xen29; assay type: cell-based, Staphylococcus aureus; details: for MIC: Staphylococcus aureus
Description: (§1) Further experiments are conducted using different strains of S. aureus, as clinically relevant Gram-positive bacterial strains: S. aureus ATCC 25904, methicillin-resistant S. aureus (MRSA) ATCC BAA-1556, Glycopeptide intermediate-resistant (GISA) S. aureus Mu-50 (ATCC 700695) in order to determine the Minimal Inhibitory Concentration (MIC) which is the minimal concentration required to prevent bacterial growth. The bioluminescent strain S. aureus Xen29 (ATCC 12600) was also used. This strain is derived from the parental strain S. aureus ATCC 12600, a pleural fluid isolate, which is also designated as NCTC8532.
(§2) A single colony selected from the different strains of S. aureus is resuspended and cultured in brain heart infusion (BHI) broth overnight (O/N) in aerobic conditions (37° C. with 220 rpm shaking), next day a 1:100 inoculum in Mueller-Hinton broth (MHB) is incubated in aerobic conditions for 3 hr (=OD0.08-0.1) and an inoculum of 1:300 dilution, corresponding to 3×10^5 CFU/ml, is incubated in presence or absence of different concentrations of the tested molecules in 1% DMSO. After O/N growth the OD of each culture was measured at 600 nm (OD600) in a spectrophotometer (Victor 3-Perkin Elmer). The MIC represents the concentration at which there is no visible growth of bacteria, i.e. ΔOD at 600 nm equal to zero (blank is the medium alone). […] The MIC of molecule 2329 against Glycopeptide intermediate-resistant (GISA) S. aureus Mu-50 (ATCC 700695) is in between 25 and 30 μM, while it is above 50 μM for molecules 2348, 2412, and 2452.
(§3) Further experiments are conducted using different strains of S. aureus, as clinically relevant Gram-positive bacterial strains: methicillin-resistant S. aureus (MRSA) ATCC BAA-1556 and S. aureus Xen29 (Perkin Elmer ATCC 12600).
(§4) To determine the MIC of the above mentioned molecules in MRSA or in Xen29, a single colony of MRSA or Xen29 is resuspended and cultured in brain heart infusion (BHI) broth overnight (O/N) in aerobic conditions (37° C. with 220 rpm shaking), next day a 1:100 inoculum in Mueller-Hinton broth (MHB) is incubated in aerobic conditions for 3 hr (OD=0.08-0.1) and an inoculum of 1:300 dilution, corresponding to 3×10^5 CFU/ml, is incubated in presence or absence of different concentrations of the tested molecules in 1% DMSO. After O/N growth the OD of each culture was measured at 600 nm (OD600) in a spectrophotometer (Victor 3-Perkin Elmer). The MIC represents the concentration at which there is no visible growth of bacteria, i.e. ΔOD at 600 nm equal to zero (blank is the medium alone).
(§5) Molecule 36z has been tested for its potential antibacterial activity by determining its minimal inhibitory concentration (MIC) according to protocols recommended by EUCAST to assess the efficacy of antibiotics against bacterial strains. In brief MIC in MRSA (ATCC BAA-1556) or in Xen29 (Perkin Elmer-ATCC 12600) for 36z (molecule 25 in WO2009/034386) was determined by culturing a single colony of MRSA or Xen29 in brain heart infusion (BHI) broth overnight (O/N) in aerobic conditions (37° C. with 220 rpm shaking), while MIC for MRSE (ATCC 35984) was determined by culturing MRSE in TSB O/N. Next day a 1:100 inoculum in Mueller-Hinton broth (MHB) is incubated in aerobic conditions for 3 hr (OD=0.08-0.1) and an inoculum of 1:300 dilution, corresponding to 3×10^5 CFU/ml, is incubated in presence or absence of different concentrations of the tested molecules in 1% DMSO. After O/N growth the OD of each culture was measured at 600 nm (OD600) in a spectrophotometer (Victor 3-Perkin Elmer). The MIC represents the concentration at which there is no visible growth of bacteria, i.e. ΔOD at 600 nm equal to zero (blank is the medium alone). No antibacterial activity was found against MRSA (ATCC BAA-1556), Xen29 (Perkin Elmer-ATCC 12600 or MRSE (ATCC 35984) strains when the molecule was used at concentrations up to 200 μM.

[2] = tested on: vancomycin-resistant (VRE) E. faecalis ATCC BAA-2365; assay: MIC determination on vancomycin-resistant E. faecalis; assay type: cell-based, Enterococcus faecalis; details: Mueller-Hinton broth (MHB)
Description: Further experiments were conducted using the clinically relevant Gram-positive bacterial strain of vancomycin-resistant (VRE) E. faecalis ATCC BAA-2365, in order to determine the Minimal Inhibitory Concentration (MIC) which is the minimal concentration required to prevent bacterial growth.
A single colony selected from E. faecalis VRE is resuspended and cultured in the brain heart infusion (BHI) broth overnight (O/N) in aerobic conditions (37° C. with 220 rpm shaking), next day a 1:100 inoculum in Mueller-Hinton broth (MHB) is incubated in aerobic conditions for 3 hr (OD=0.08-0.1) and an inoculum of 1:300 dilution, corresponding to 3×10^5 CFU/ml, is incubated in presence or absence of different concentrations of the tested molecules in 1% DMSO. After O/N growth the OD of each culture is measured at 600 nm (OD600) in a spectrophotometer (Victor 3-Perkin Elmer). The MIC represents the concentration at which there is no visible growth of bacteria, i.e. ΔOD at 600 nm equal to zero (blank is the medium alone).

[3] = tested on: methicillin-resistant S. aureus (MRSA) ATCC BAA-1556; assay: MIC determination on methicillin-resistant S. aureus; assay type: cell-based, Staphylococcus aureus; details: for MIC: Staphylococcus aureus; for antibacterial activity against MRSA (in words): MHB medium
Description: as §1, §2, §3, §4, §5

S. aureus ATCC 25904 = assay: MIC determination on S. aureus ATCC 25904; assay type: cell-based; details: Staphylococcus aureus, ATCC25904, read-out: MIC S. aureus ATCC25904
Description: as §1, §2

[4] = tested on: Staphylococcus epidermidis (ATCC 35984, also known as RP62A or MRSE); assay: MIC determination on S. epidermidis (EUCAST, OD600 after overnight growth in MHB); assay type: cell-based; details: for MIC: Staphylococcus epidermidis
Description: The Minimal Inhibitory Concentration (MIC) of molecules 2329, 2348, 2412, 2452 and 2461 was determined on Staphylococcus epidermidis (ATCC 35984, also known as RP62A) according to EUCAST (European Committee on Antimicrobial Susceptibility Testing) recommendations.
Briefly, a single colony grown on a Tryptic Soy Agar (TSA) plate was resuspended and cultured in Tryptic Soy Broth (TSB) overnight (O/N) in aerobic conditions (37° C. with 220 rpm shaking), next day a 1:50 inoculum in Mueller-Hinton broth (MHB) was incubated in aerobic conditions for 3 hr and an inoculum of 1:100 dilution, corresponding to 3×10^5 CFU/ml, was incubated in presence or absence of different concentrations of the molecules in 1% DMSO (vehicle). After O/N growth the OD of each culture was measured at 600 nm in a spectrophotometer (OD600). The MIC represents the concentration at which there is no visible growth of bacteria, i.e. ΔOD at 600 nm equal to zero (blank is the medium alone).
The Minimal Inhibitory Concentration (MIC) of pyrazolopyrimidine molecules 2539, 2544, 2666,2676, 2693, 2783, 2784 and 2782 and of purine molecules 2498, 2511, 2525, 2527, 2833, and 2840 was determined on S. epidermidis (ATCC 35984, also known as RP62A or MRSE) according to EUCAST (European Committee on Antimicrobial Susceptibility Testing) recommendations.
Briefly, a single colony grown on an agar plate was resuspended and cultured in Triptic Soy Broth (TSB) medium overnight (O/N) in aerobic conditions (37° C. with 220 rpm shaking), next day a 1:50 inoculum in Mueller-Hinton broth (MHB) was incubated in aerobic conditions for 3 hr (OD=0.08-0.1) and an inoculum of 1:300 dilution, corresponding to 3×10^5 CFU/ml, was incubated in presence or absence of different concentrations of each of the molecules in 1% DMSO (vehicle). After O/N growth the OD of each culture was measured at 600 nm (600) in a spectrophotometer (Victor 3-Perkin Elmer). The MIC represents the concentration at which there is no visible growth of bacteria, i.e. ΔOD at 600 nm equal to zero (where ΔOD is the difference between the OD with the molecule and the OD of the blank, the medium alone).
as §5

[5] = tested on: Murl isozyme from E. faecium; details: Table 9 of WO2009/034386; cited from earlier work
[6] = target: Murl isozyme from E. faecalis (Enterococcus faecalis, UniProt Q836J0); details: read-out: IC50 Murl isozyme from E. faecalis; Table 9 of WO2009/034386; cited from earlier work
MRSE = assay: Minimal Bactericidal Concentration (MBC) for MRSE; assay type: cell-based, Staphylococcus epidermidis
Description: We have determined the Minimal Bactericidal Concentration (MBC) of the pyrazolopyrimidine molecule 2666 for the MRSA strain and the MBC of the purine molecules 2329 and 2833 for MRSA and the MRSE strain respectively.
To determine the MBC, bacteria were grown as per MIC determination in presence of the pyrazolopyrimidine molecule 2666 for MRSA or in presence of the purine molecule 2833 for MRSE or 2329 for MRSA. At 24 hours bacteria were plated on TSB agar plates by the broth microdilution method, and colonies formed on the plates were counted next day.
The MBC represents the lowest concentration at which 99.9% bacteria of the initial inoculum are killed over 24 hours.

[7] = ATCC12600, read-out: MIC Xen29 (comparison molecules of WO2009/034386)
[8] = read-out: MIC MRSA (comparison molecules of WO2009/034386)
[9] = read-out: MIC MRSE (comparison molecules of WO2009/034386)
[10] = MHB medium, tested up to 100 μM, read-out: MIC MRSE

Sequence of Murl isozyme from E. faecalis (Q836J0 whole entry): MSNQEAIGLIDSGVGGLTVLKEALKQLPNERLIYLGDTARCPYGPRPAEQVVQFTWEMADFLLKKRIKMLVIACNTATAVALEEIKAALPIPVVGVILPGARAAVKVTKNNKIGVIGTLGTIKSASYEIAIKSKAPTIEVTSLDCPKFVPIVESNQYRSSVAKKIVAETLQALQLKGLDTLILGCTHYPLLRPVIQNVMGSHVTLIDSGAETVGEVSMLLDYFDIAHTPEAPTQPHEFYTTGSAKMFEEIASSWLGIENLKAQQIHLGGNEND

Row | SMILES | MIC [1, 7] [µM] | IC50 [5] [µM] | MIC [3, 8] [µM] | MIC [4, 9] [µM] | antibacterial activity against MRSA (in words) [3] | MIC ([3]; read-out: MIC MRSA) [µM] | antibacterial activity / inhibition of MRSE growth (in words) ([4]; MHB medium) | MIC [4, 10] [µM] | also measured
1 | CCCSc1nc(N[C@@H]2C[C@H]2c2ccc(F)c(F)c2)c2ncn([C@@H]3C[C@H](O)[C@@H](O)[C@H]3O)c2n1 [Molecule 2461, (1S,2R,3S,4R)-4-(6-(((1R,2S)-2-(3,4-difluorophenyl)cyclopropyl)amino)-2-(propylthio)-9H-purin-9-yl)cyclopentane-1,2,3-triol] | – | – | – | – | – | – | – | – | MIC ([1]; ATCC12600, read-out: MIC S. aureus Xen29): 20 to 25 µM (≈ 9.55 to 11.9 µg/mL); MIC [2]: 25 µM (≈ 11.9 µg/mL); MIC ([3]; read-out: MIC S. aureus MRSA): 25 µM (≈ 11.9 µg/mL); MIC (S. aureus ATCC 25904): 20 to 25 µM (≈ 9.55 to 11.9 µg/mL); MIC ([4]; Mueller-Hinton broth (MHB), read-out: MIC S. epidermidis RP62): 20 µM (≈ 9.55 µg/mL)
2 | CCCCSc1nc(N)c2ncn(Cc3c(F)ccc(Cl)c3F)c2n1 [Molecule 36z, 2-(Butylthio)-9-(3-chloro-2,6-difluorobenzyl)-9H-purin-6-amine, reference compound] | > 200 | 5 | > 200 | > 200 | – | – | – | – | IC50 [6]: 2 µM
3 | CCCCOc1nc(NCc2cccnc2)c2ncn(Cc3c(F)ccc(Cl)c3F)c2n1 [37z″, 2-Butoxy-9-(3-chloro-2,6-difluorobenzyl)-N-(pyridin-3-ylmethyl)-9H-purin-6-amine, reference compound] | > 200 | 5 | > 200 | > 200 | – | – | – | – | –
4 | CCCCSc1nc(N[C@@H]2C[C@H]2c2ccc(F)c(F)c2)c2ncn(C)c2n1 [Molecule 2833, 2-(butylthio)-N-((1R,2S)-2-(3,4-difluorophenyl)cyclopropyl)-9-methyl-9H-purin-6-amine] | – | – | – | – | active | 50 (≈ 19.5 µg/mL) | able to inhibit MRSE growth | 30 (≈ 11.7 µg/mL) | MBC relative to MIC, MRSE (MRSE): around 2 times; MBC (MRSE; Staphylococcus epidermidis, MRSE, 99.9% of initial inoculum killed over 24 hours): 50 µM (≈ 19.5 µg/mL)
5 | CCn1ncc2c(N[C@@H]3C[C@H]3c3ccc(F)c(F)c3)nc(SC)nc21 [Molecule 2544, N-((1R,2S)-2-(3,4-difluorophenyl)cyclopropyl)-1-ethyl-6-(methylthio)-1H-pyrazolo[3,4-d]pyrimidin-4-amine] | – | – | – | – | active | 50 (≈ 18.1 µg/mL) | able to inhibit MRSE growth | 80 (≈ 28.9 µg/mL) | antibacterial activity / inhibition of Xen29 growth (in words) ([1]; MHB medium): able to inhibit; MIC ([1]; ATCC12600, read-out: MIC Xen29): 50 µM (≈ 18.1 µg/mL)
